Assay results reported in patent publication US6346406B1, “Elongation factor-2 kinase (EF-2 kinase), and methods of use therefor” (University of Medicine & Dentistry of New Jersey, priority 1997, dated 2002).

Experiments:
[1] = system: recombinant human eEF-2 kinase; test: eEF-2 kinase activity assay: phosphorylation of rabbit reticulocyte eEF-2 with [γ-32P]ATP, SDS/PAGE and autoradiography; type: biochemical; conditions: kinase expressed in coupled transcription/translation system, assayed without further purification; 20 μM antagonist is printed in the FIG. 3 legend for panel C
Description: FIG. 3. Activity of recombinant eEF-2 kinase in vitro. A large scale (0.5 ml) reaction using a mixture of Cefk-1 and Cefk-2 plasmids was run as in FIG. 2, with the omission of labeled methionine. In the control experiment, the reaction was run with a plasmid containing a luciferase gene. (A) The reaction mixtures were separated by chromatography on a Mono Q column as described. (B) eEF-2 kinase activity in fractions was measured as the ability to phosphorylate purified rabbit eEF-2 in the presence of [γ-^32 P]ATP. Purified rabbit reticulocyte eEF-2 kinase was used in the (+) control experiments. (C) Ca^2+/calmodulin-dependency of recombinant C. elegans eEF-2 kinase. Mono Q fraction 25 was assayed in a standard eEF-2 kinase assay in the presence and absence of Ca^2+ and calmodulin and 20 μM trifluoperazine (TFP) or N-(6 aminohexyl)-5-chloro-1-napthalene-sulfonamide (W7). (D) Ca^2+/calmodulin-dependency of recombinant human eEF-2 kinase. […]
To assay for eEF-2 kinase activity, 5 μl from each fraction was added to a reaction mixture (40 μl) containing 50 mM Hepes-KOH (ph. 7.4) 10 mM magnesium acetate, 0.1 mM CaCl2, 5 mM dithiothreitol, 50 μM ATP, 2 μCi [γ-^32P]ATP, 0.6 μg calmodulin, and 0.5 μg rabbit reticulocyte eEF-2. […] Phosphoproteins were analyzed by autoradiography. […]

[2] = target: T1, recombinant eEF-2 kinase (Homo sapiens, UniProt O00418); test: eEF-2 kinase activity assay using a 16-amino acid peptide derived from myosin heavy chain as the phosphorylation target; type: biochemical; conditions: [γ-33P]ATP, 30° C., phosphocellulose paper, scintillation counting
T1 construct: one of GST (pGEX-2T), 6xHis (pRSET A) or thioredoxin (pThioHisB); made in house; host or cells: Escherichia coli BL21(DE3)
Description: FIG. 8. Assay for eEF-2 kinase activity. Recombinant eEF-2 kinase (2 μg) was incubated with increasing concentrations of a peptide phosphorylation target (RKKGESEKTKTKEFL) in a buffer consisting of 12.5 mM Hepes-KOH (pH 7.4), 2.5 mM magnesium acetate, 1.25 mM DTT, 25 μM CaCl2, 0.5 μg calmodulin, 100 μM ATP, and 0.5 μCi [γ-^33P]ATP in a total volume of 50 μl. Samples were incubated at 30° C. and aliquots were withdrawn at various time points, and the reaction was terminated by incubation in an ice water bath. The aliquots were then spotted onto phosphocellulose paper (2 cm×2 cm) and washed (4×4 min) with 75 mM phosphoric acid. The papers were then rinsed with 100% ethanol, dried, and then counted in a scintillation counter.
Human eEF-2 kinase cDNA was cloned into three different expression vectors: pGEX-2T (Pharmacia Biotech, Piscataway, N.J.); pRSET A (Invitrogen, Sorrento Valley, Calif.); and, pThioHisB (Invitrogen). After transformation into Escherichia coli strain BL21(DE3), transformants were cultured in LB broth containing 50 μg/ml ampicillin. When the cultured reached an A600 value of 0.7, isopropyl-β-thiogalactopyranoside (IPTG) was added to the bacterial cultures to a final concentration of […] to induce expression. […] The refolded protein was analyzed by SDS-PAGE and assayed for the ability to phosphorylate eEF-2. […]

Compound	inhibition of recombinant human eEF-2 kinase activity by calmodulin antagonists [1]	ability to serve as substrate (phosphoacceptor) for eEF-2 kinase [2]
NCCCCCCNS(=O)(=O)c1cccc2c(Cl)cccc12 [N-(6-aminohexyl)-5-chloro-1-napthalene-sulfonamide]	completely inhibited	
CN1CCN(CCCN2c3ccccc3Sc3ccc(C(F)(F)F)cc32)CC1 [trifluoperazine]	completely inhibited	
RKKFGESEKTKTKEFL [16-mer peptide based on the phosphorylation site of Dictyostelium discoideum MHC, substrate for eEF-2 kinase]		good substrate
